Source: publication PMC9385671 (Nature Communications, 2022)
Where “and” joins values, the source holds several entries; their conditions need not be identical. Equal entries are not always repeated. Where two headings read alike, the source gives them in different places.

Legend:
MjTyrRS variants [1] = target: T1, MjTyrRS variants (Methanocaldococcus jannaschii, UniProt Q57834, D158A/F108N/H70G/L162C/L65E/Y32V); assay: Intact cell fluorescence assay of HYs incorporation into SUMO-sfGFP; format: cell-based; settings: Synthetase C64RS
T1 construct: expressed in transfected cells
Experimental: (§1) The intact cell fluorescence assay was performed to approximately compare the Br2Y and Cl2Y incorporation efficiency of screened MjTyrRSs as well as to estimate their promiscuity against other Tyr analogues. Since the gene expression of SUMO-sfGFP was driven by T5 promoter on the one round positive selection plasmid, SUMO-sfGFP can be directly expressed in DH10b strain. […] Next day, an overnight culture was inoculated in a well at a ratio of 1:100 containing 300 μL TB medium supplemented with 50 μg/mL Kan,100 μg/mL Amp, 0.5 mM IPTG as well as 1 mM HYs while the corresponding control lacked the HYs. Cells were grown in 96 well plates (Ibidi) with orbital shaking (2 mm amplitude) for 24 h at 37 °C covered with a gas-permeable foil (Sigma Aldrich, Taufkirchen, Germany). […] After 24 h incubation, the optimal density and fluorescence was measured via top reading after the gas-permeable foil was removed. Each measurement was done in triplicate.

MjTyrRS variants [2] = target: T2, MjTyrRS variants (Methanocaldococcus jannaschii, UniProt Q57834, D158A/F108Q/H70G/L162N/L65E/Q109C/Y32G); assay: as above; format: cell-based; settings: for Fluorescence Instensity: Synthetase B48RS; for Incorporation efficiency (sfGFP fluorescence) versus control without HYs additions: mutant B48RS, 1 mM HY, E. coli DH10b
T2 construct: expressed in transfected cells
Experimental: as §1

MjTyrRS variants [3] = assay: as above; format: cell-based, Methanocaldococcus jannaschii
Experimental: as §1

FtsZ-YFP-mts = FtsZ-YFP-mts (Escherichia coli, UniProt P0A9A6); format: biochemical; set-up: made in house; host or cells: E. coli BL21(DE3) for the wild type; settings: 5 μM protein, 1 mM GTP
Experimental: Reactions were performed every 20 s for a total time of 120 s. After 30 min of incubation with BIOMOL® GREEN at room temperature, the absorbance of the samples at 620 nm was monitored by TECAN plate reader. The phosphate release concentrations were calculated based on a phosphate standard curve.

[4] = Side-chain acidity: pKa by 1H NMR titration of free amino acids; format: physicochemical; settings: for pKa: aqueous KH2PO4 solution titrated with sodium hydroxide; for pKa of the phenolic side-chain: experimental error ±0.15
Experimental: 10–20 mg of an amino acid, 50 mg of KH2PO4 was dissolved in 15 ml of water and titrated by sodium hydroxide solution to distinct pH values. 500 μl were taken to NMR tubes, 50 μl deuterium oxidewas added and ^1H NMR spectra were measured using W5 pulse tray water suppression at 500 MHz frequency. The chemical shifts were plotted against pH and analyzed using Henderson-Hasselbalch equation to deliver the pKa values. Experimental error ±0.15.

[5] = experimental error ±0.15, read-out: Ammonium pKa
[6] = experimental error ±0.15, read-out: pKa of the phenolic side-chain

T2 sequence (Q57834 whole entry Y32G/L65E/H70G/F108Q/Q109C/D158A/L162N): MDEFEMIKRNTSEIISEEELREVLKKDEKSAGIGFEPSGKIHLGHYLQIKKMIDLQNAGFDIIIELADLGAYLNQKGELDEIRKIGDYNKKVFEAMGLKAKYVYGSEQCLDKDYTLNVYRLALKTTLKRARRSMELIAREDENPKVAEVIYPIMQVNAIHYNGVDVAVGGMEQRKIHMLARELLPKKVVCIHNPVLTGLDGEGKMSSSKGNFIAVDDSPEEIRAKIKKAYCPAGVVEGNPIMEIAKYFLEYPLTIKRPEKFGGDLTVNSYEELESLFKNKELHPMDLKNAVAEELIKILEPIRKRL
FtsZ-YFP-mts, sequence (P0A9A6 1-366): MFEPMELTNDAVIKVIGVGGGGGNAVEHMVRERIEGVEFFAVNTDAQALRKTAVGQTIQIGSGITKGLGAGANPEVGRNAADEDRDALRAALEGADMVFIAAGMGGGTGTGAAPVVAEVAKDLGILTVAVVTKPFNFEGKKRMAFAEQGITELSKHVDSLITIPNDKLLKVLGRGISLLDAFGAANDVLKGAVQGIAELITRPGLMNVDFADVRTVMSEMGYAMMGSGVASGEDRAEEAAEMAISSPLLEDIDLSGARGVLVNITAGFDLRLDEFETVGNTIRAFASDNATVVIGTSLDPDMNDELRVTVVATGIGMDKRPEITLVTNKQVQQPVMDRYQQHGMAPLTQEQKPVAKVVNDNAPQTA
T1 sequence (Q57834 whole entry Y32V/L65E/H70G/F108N/D158A/L162C): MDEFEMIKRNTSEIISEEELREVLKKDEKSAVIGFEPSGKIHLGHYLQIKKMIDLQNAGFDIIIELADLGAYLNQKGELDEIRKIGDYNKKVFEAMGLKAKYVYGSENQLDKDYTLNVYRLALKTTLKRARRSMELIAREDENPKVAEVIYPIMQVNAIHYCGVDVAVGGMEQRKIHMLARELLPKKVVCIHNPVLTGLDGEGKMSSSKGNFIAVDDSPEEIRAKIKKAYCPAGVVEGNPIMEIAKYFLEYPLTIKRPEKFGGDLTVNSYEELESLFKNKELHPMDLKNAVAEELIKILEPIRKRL

Structure (SMILES) | Fluorescence Instensity (MjTyrRS variants [1]) | Fluorescence Instensity (MjTyrRS variants [2]) | Incorporation efficiency (sfGFP fluorescence) versus control without HYs additions (MjTyrRS variants [2]) | Fluorescence Instensity (MjTyrRS variants [3]; Synthetase B4RS) | Fluorescence Instensity (MjTyrRS variants [3]; Synthetase B12RS) | Fluorescence Instensity (MjTyrRS variants [3]; Synthetase B37RS) | Fluorescence Instensity (MjTyrRS variants [3]; Synthetase B39RS) | Fluorescence Instensity (MjTyrRS variants [3]; Synthetase C5RS) | Fluorescence Instensity (MjTyrRS variants [3]; Synthetase C45RS) | Fluorescence Instensity (MjTyrRS variants [3]; Synthetase C61RS) | GTPase activity, Average (FtsZ-YFP-mts; average of two repeats) [pi/min] | GTPase activity, single repeats (FtsZ-YFP-mts; repeat 1 and repeat 2) | pKa [4, 5] | pKa [4, 6] | pKa of the phenolic side-chain [4]
N[C@@H](Cc1cc(Br)c(O)c(Br)c1)C(=O)O [Br2Y, 3,5-dibromo-L-tyrosine] | 0.543 a.u. and 0.6311 a.u. and 0.4752 a.u. | 0.6442 a.u. and 0.7285 a.u. and 0.5778 a.u. | more than 100 fold | 0.3153 a.u. and 0.3784 a.u. and 0.2551 a.u. | 0.5915 a.u. and 0.6712 a.u. and 0.4959 a.u. | 0.6 a.u. and 0.6999 a.u. and 0.4943 a.u. | 0.615 a.u. and 0.7381 a.u. and 0.4945 a.u. | 0.6366 a.u. and 0.6936 a.u. and 0.5742 a.u. | 0.5945 a.u. and 0.6865 a.u. and 0.5035 a.u. | 0.4306 a.u. and 0.4884 a.u. and 0.3801 a.u. | 3.469 | 3.2195 pi/min and 3.7182 pi/min | 9.47 | 6.5 | 6.42 and 6.4
N[C@@H](Cc1ccc(O)c(Br)c1)C(=O)O [BrY, 3-bromo-L-tyrosine] | 0.3329 a.u. and 0.3931 a.u. and 0.2701 a.u. | 0.5063 a.u. and 0.6051 a.u. and 0.4087 a.u. | more than 100 fold | 0.06278 a.u. and 0.07689 a.u. and 0.04597 a.u. | 0.408 a.u. and 0.4614 a.u. and 0.3514 a.u. | 0.2591 a.u. and 0.2929 a.u. and 0.2246 a.u. |  | 0.7502 a.u. and 0.845 a.u. and 0.6301 a.u. | 0.7918 a.u. and 0.9328 a.u. and 0.6597 a.u. | 0.2377 a.u. and 0.2625 a.u. and 0.2104 a.u. |  |  | 9.52 | 8.3 | 8.29
